The text below walks through data of ChEMBL document CHEMBL4819001, “Discovery of tetrahydroquinolines and benzomorpholines as novel potent RORγt agonists” (Eur J Med Chem, 2021).

In assay [1] the target is T1, Nuclear receptor ROR-gamma (Homo sapiens, UniProt P51449).
T1 sequence (P51449 whole entry): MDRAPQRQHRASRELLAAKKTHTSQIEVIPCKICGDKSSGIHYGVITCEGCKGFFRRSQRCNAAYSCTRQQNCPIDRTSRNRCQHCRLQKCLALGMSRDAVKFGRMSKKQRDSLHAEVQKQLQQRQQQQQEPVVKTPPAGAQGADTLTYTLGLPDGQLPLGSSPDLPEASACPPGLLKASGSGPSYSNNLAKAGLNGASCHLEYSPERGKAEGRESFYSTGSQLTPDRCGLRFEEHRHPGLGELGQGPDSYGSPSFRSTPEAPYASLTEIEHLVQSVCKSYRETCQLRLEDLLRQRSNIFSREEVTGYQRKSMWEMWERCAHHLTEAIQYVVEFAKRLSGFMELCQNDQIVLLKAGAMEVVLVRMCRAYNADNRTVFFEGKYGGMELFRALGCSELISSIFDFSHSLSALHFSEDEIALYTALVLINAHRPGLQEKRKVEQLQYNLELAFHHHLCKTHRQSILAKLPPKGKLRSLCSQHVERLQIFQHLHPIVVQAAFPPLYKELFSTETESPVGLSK
The assay is described as follows: Agonist activity at APC-labelled RORgammat (unknown origin) assessed as biotinylated SRC recruitment measured after 1 hr by dual FRET assay.

The target of assay [2] is T1, Nuclear receptor ROR-gamma. Briefly: Agonist activity at human RORgammat LBD expressed in HEK293T cells assessed increase in Gal4 reporter gene transcription measured after 16 to 20 hrs by luciferase reporter gene assay. The assay is classed as cell-based. On the technique in general: Reporter assays use an easily measured gene product as a stand-in for the process of interest.

Assay [3] addresses T2, Nuclear receptor ROR-gamma (Mus musculus) (UniProt P51450).
T2 sequence (whole entry): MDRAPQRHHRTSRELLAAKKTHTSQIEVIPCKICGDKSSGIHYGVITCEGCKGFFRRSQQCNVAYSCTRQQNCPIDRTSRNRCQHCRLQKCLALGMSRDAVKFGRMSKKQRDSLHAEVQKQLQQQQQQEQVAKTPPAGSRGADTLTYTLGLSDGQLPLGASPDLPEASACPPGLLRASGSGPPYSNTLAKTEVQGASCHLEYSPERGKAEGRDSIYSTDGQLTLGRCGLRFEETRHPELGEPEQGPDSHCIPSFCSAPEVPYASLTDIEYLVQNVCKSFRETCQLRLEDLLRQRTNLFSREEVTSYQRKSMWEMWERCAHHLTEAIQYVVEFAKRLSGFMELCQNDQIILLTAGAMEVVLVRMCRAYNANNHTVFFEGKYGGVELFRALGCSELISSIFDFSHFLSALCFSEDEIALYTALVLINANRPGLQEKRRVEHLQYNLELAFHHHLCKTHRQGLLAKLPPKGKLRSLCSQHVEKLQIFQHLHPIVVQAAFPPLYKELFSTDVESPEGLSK
The assay is described as follows: Agonist activity at RORgammat in mouse CD4+ Th17 cells assessed as promotion of IL17 production at 30 nM measured after 4 days by intracellular staining based flow cytometry. The assay is classed as cell-based. To be noted: filed as agonist, time 4.0 day. (In general: In flow cytometry, cells or beads pass a laser one at a time.)

For assay [4], the target named is T2, Nuclear receptor ROR-gamma (Mus musculus). The assay is described as follows: Agonist activity at RORgammat in mouse CD4+ Th17 cells assessed as promotion of IL17 production at 300 nM measured after 4 days by intracellular staining based flow cytometry. It counts as cell-based. As to conditions: filed as agonist, time 4.0 day.
The target of assay [5] is T3, Nuclear receptor ROR-gamma (Homo sapiens) (UniProt P51449).
T3 sequence (whole entry): T1 sequence (P51449 whole entry)
Briefly: Inverse agonist activity at human RORgammat LBD expressed in HEK293T cells assessed inhibition of Gal4 reporter gene transcription measured after 16 to 20 hrs by luciferase reporter gene assay relative to control. The assay is classed as cell-based. As to conditions: filed as inverse agonist, time 16-20 hrs.

In assay [6] the target is T1, Nuclear receptor ROR-gamma. Briefly: Inverse agonist activity at APC-labelled RORgammat (unknown origin) assessed as inhibition of biotinylated SRC recruitment measured after 1 hr by dual FRET assay.
Assay [7] concerns the target T1, Nuclear receptor ROR-gamma. Briefly: Inverse agonist activity at human RORgammat LBD expressed in HEK293T cells assessed inhibition of Gal4 reporter gene transcription measured after 16 to 20 hrs by luciferase reporter gene assay. It counts as cell-based.

Turning to `CCS(=O)(=O)c1ccc(CC(=O)Nc2ccc(CCN3CCCc4ccc(C=C(C)C)cc43)cc2)cc1`, the EC50 in assay [1] was 5.3 nM.
`CCS(=O)(=O)c1ccc(CC(=O)Nc2ccc(CCN3CCCc4ccc(C(C)C)cc43)cc2)cc1`: in assay [1], the EC50 is 22.1 nM.
Same read-out and setting: the value for `CCS(=O)(=O)c1ccc(CC(=O)Nc2ccc(CCN3CCCc4ccc(C)cc43)cc2)cc1` was 16.7 nM.
Same read-out and setting: the result for `CS(=O)(=O)c1ccc(CC(=O)Nc2ccc(CCN3CCOc4ccc(C(F)(C(F)(F)F)C(F)(F)F)cc43)cc2)cc1` reads 46 nM.
Take `CC(C)Oc1ccc2c(c1)N(CCc1ccc(C(=O)NCc3ccc(S(C)(=O)=O)cn3)cc1)CCO2`: the figures for the EC50 in assay [2] and in assay [1] were 107 nM and 7.5 nM, respectively. Also, the Activity in assay [3] was found to be 45.2%; in assay [4] it was 59.4%.
Regarding `CCS(=O)(=O)c1ccc(CC(=O)Nc2ccc(CCN3CCCc4ccc(CC(C)C)cc43)c(F)c2)cc1`, in assay [1], the EC50 is 13 nM.
As for `CCS(=O)(=O)c1ccc(CC(=O)Nc2ccc(CCN3CCCc4ccc(CC5CC5)cc43)cc2)cc1`, in assay [1], the EC50 stood at 12.8 nM.
On the same count and under the same terms, the value for `CCS(=O)(=O)c1ccc(CC(=O)Nc2ccc(CCN3CCCc4ccc(OC5CCC5)cc43)cc2)cc1` was 15.6 nM; that for `CCS(=O)(=O)c1ccc(CNC(=O)c2ccc(CCN3CCCc4ccc(OC5CCC5)cc43)cc2)nc1` was 12.2 nM.
On the same count and under the same terms, the result for `CCS(=O)(=O)c1ccc(C(CO)NC(=O)c2ccc(CCN3CCCc4ccc(CC(C)C)cc43)cc2)cc1` (centres undefined) reads 20.9 nM.
`CCS(=O)(=O)c1ccc(CC(=O)Nc2ccc(CC(=O)N3CCCc4ccc(CC(C)C)cc43)cc2)cc1` registered an Imax in assay [5] of 101%. Besides, the IC50 in assay [6] came to 31.5 nM; in assay [7], 151 nM.
Consider `CCS(=O)(=O)c1ccc(CNC(=O)c2ccc(CCN3CCOc4ccc(OC(C)C)cc43)cc2)nc1`, for which the half-maximal effective concentration (EC50) was 135 nM in assay [2] and 4.6 nM in assay [1].
As to `CCS(=O)(=O)c1ccc(CNC(=O)c2ccc(CCN3CCCc4ccc(OC5COC5)cc43)cc2)nc1`, the EC50 in assay [1] is 7.7 nM.
Consider `CCS(=O)(=O)c1ccc(CC(=O)Nc2ccc(CCN3CCOc4ccc(OC(C)C)cc43)cc2)cc1`, for which, in assay [1], the EC50 was 7.3 nM.
Still for that read-out and setting: the result for `CCS(=O)(=O)c1ccc(CC(=O)Nc2ccc(CCN3CCCc4ccc(CC(C)(C)C)cc43)cc2)cc1` reads 30.3 nM.
As for `CCS(=O)(=O)c1ccc(CNC(=O)c2ccc(CCN3CCCc4ccc(CC(C)C)cc43)cc2)nc1`, the half-maximal effective concentration (EC50) worked out at 242 nM in assay [2] and 8.9 nM in assay [1]. The Activity in assay [3] turned out to be 56.3%; in assay [4], 104%.
As for `CCS(=O)(=O)c1ccc(CNC(=O)c2ccc(CCN3CCCc4ccc(OC(C)C)cc43)cc2)nc1`, the EC50 in assay [1] worked out at 8.9 nM.
`CS(=O)(=O)c1ccc(CC(=O)Nc2ccc(CCN3CCOc4ccc(C(O)(C(F)(F)F)C(F)(F)F)cc43)cc2)cc1`: in assay [6], the half-maximal inhibitory concentration (IC50) is 14.6 nM.
As to `CCS(=O)(=O)c1ccc(CC(=O)Nc2ccc(CCN3CCCc4ccc(OC5COC5)cc43)cc2)cc1`, in assay [1], the EC50 is 6.6 nM.
Take `CCS(=O)(=O)c1ccc(CNC(=O)Nc2ccc(CCN3CCCc4ccc(CC(C)C)cc43)cc2)cc1`: the EC50 in assay [1] worked out at 25.9 nM.
Turning to `CC(C)Oc1ccc2c(c1)N(CCc1ccc(NC(=O)Cc3ccc(S(C)(=O)=O)cc3)cc1)CCO2`, in assay [1], the concentration giving a half-maximal response (EC50) was found to be 4.4 nM.
On the same count and under the same terms, the result for `CCS(=O)(=O)c1ccc(CNC(=O)c2ccc(CCN3CCOc4ccc(CC(C)C)cc43)cc2)nc1` reads 7.1 nM.
Regarding `CCS(=O)(=O)c1ccc(CC(=O)Nc2ccc(CCN3CCCc4ccc(F)cc43)cc2)cc1`, the EC50 in assay [1] was found to be 11.5 nM.
The same measure, in the same setting: the value for `CCS(=O)(=O)c1ccc(CC(=O)Nc2ccc(CCN3CCCc4ccccc43)cc2)cc1` was 21.5 nM; that for `CC(Oc1ccc2c(c1)N(CCc1ccc(NC(=O)Cc3ccc(S(C)(=O)=O)cc3)cc1)CCO2)C(F)(F)F` (centres undefined) was 4.4 nM.

As a reminder, the EC50 is the concentration needed to bring the measured effect to its halfway point. The term IC50 denotes the point on the concentration scale where inhibition reaches its midpoint.
